Test results as given in patent US20260184712A1, “Heterocyclic Compounds as ENT Inhibitors and Compounds for Use in the Treatment of Cancers” (iTeos Belgium SA, priority 2022, published 2026).

These compounds were tested against T1, human ENT1 (Homo sapiens, UniProt Q99808) (assay: ENT1 binding assay (competition with Sahenta-DY647 on JAR cells)). Details: competition with SAHENTA-DY647 binding; IC50 categorized; read-out: Binding Assay IC50.
T1 construct: JAR cells expressing ENT1 were purchased from ATCC; host or cells: JAR cells
T1 sequence (Q99808 1-456): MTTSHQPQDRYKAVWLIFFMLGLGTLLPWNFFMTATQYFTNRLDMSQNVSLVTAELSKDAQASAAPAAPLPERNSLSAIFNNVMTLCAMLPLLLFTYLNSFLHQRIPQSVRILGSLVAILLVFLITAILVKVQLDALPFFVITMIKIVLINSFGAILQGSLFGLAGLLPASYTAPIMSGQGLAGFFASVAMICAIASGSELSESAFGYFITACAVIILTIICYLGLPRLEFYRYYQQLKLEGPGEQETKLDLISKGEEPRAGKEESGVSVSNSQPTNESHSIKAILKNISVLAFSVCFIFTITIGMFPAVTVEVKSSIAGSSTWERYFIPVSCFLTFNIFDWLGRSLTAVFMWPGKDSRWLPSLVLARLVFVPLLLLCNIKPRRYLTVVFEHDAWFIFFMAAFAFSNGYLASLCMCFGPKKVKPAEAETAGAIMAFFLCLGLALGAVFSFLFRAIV
Method in brief: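 Whole-cell competition on JAR cells (native ENT1): 50,000 cells pre-incubated 30 min at 4 °C with compound in HBSS/10 mM Hepes/0.1% BSA, then 100 nM Sahenta-DY647 added for 30 min at 4 °C. After washing, fluorescence (Ex 630/Em 670 nm) read; IC50 from sigmoidal fit, averaged as pIC50.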

Row | SMILES | IC50 [nM]
1 | C[C@H]1O[C@@H](n2cnc3c(NCc4ccc(OC5CCOCC5)cc4)ncnc32)[C@H](O)[C@@H]1O [Compound 389] | > 500
2 | C[C@H]1O[C@@H](n2cnc3c(SCc4ccc(C(=O)N5CCCC5)cc4)ncnc32)[C@H](O)[C@@H]1O [Compound 390] | > 500
3 | C[C@H]1O[C@@H](n2cnc3c(SCc4ccc(S(=O)(=O)N5CCCC5)cc4)ncnc32)[C@H](O)[C@@H]1O [Compound 391] | > 500
4 | C[C@H]1O[C@@H](n2cnc3c(SCc4nc5ccccc5o4)ncnc32)[C@H](O)[C@@H]1O [Compound 392] | > 500
5 | C[C@H]1O[C@@H](n2cnc3c(SCc4cccnn4)ncnc32)[C@H](O)[C@@H]1O [Compound 393] | > 500
6 | C[C@H]1O[C@@H](n2cnc3c(SCc4ncccn4)ncnc32)[C@H](O)[C@@H]1O [Compound 394] | > 500
7 | C[C@H]1O[C@@H](n2cnc3c(SCc4nc(-c5ccc(F)cc5)no4)ncnc32)[C@H](O)[C@@H]1O [Compound 395] | > 500
8 | Cc1ccc2nc(CSc3ncnc4c3ncn4[C@@H]3O[C@H](C)[C@@H](O)[C@H]3O)cn2c1 [Compound 396] | > 500
9 | Cc1noc(CSc2ncnc3c2ncn3[C@@H]2O[C@H](C)[C@@H](O)[C@H]2O)n1 [Compound 397] | > 500
10 | Cc1nnc(CSc2ncnc3c2ncn3[C@@H]2O[C@H](C)[C@@H](O)[C@H]2O)o1 [Compound 398] | > 500
11 | C[C@H]1O[C@@H](n2cnc3c(COCc4ccccc4)ncnc32)[C@H](O)[C@@H]1O [Compound 399] | > 500
12 | C[C@H]1O[C@@H](n2cnc3c(OCCc4ccc(C(F)F)nc4)ncnc32)[C@H](O)[C@@H]1O [Compound 400] | > 500
13 | C[C@H]1O[C@@H](n2cnc3c(OCCc4ccc(=O)n(C)c4)ncnc32)[C@H](O)[C@@H]1O [Compound 401] | > 500
14 | C[C@H]1O[C@@H](n2cnc3c(OCCc4ccc(C#N)cn4)ncnc32)[C@H](O)[C@@H]1O [Compound 402] | > 500
15 | C[C@H]1O[C@@H](n2cnc3c(OCCc4cnc(CF)nc4)ncnc32)[C@H](O)[C@@H]1O [Compound 403] | > 500
16 | C[C@H]1O[C@@H](n2cnc3c(OCCc4cnc(C(F)F)nc4)ncnc32)[C@H](O)[C@@H]1O [Compound 404] | > 500
17 | O=[N+]([O-])c1ccc(COc2ncnc3c2ncn3[C@H]2C[C@H](O)[C@@H](CO)O2)cc1 [Compound 405] | > 500
18 | C[C@H]1O[C@@H](n2cnc3c(C(=O)N(C)Cc4ccc([N+](=O)[O-])cc4)ncnc32)[C@H](O)[C@@H]1O [Compound 406] | > 500
19 | C[C@H]1O[C@@H](n2cnc3c(NS(=O)(=O)Cc4ccc([N+](=O)[O-])cc4)ncnc32)[C@H](O)[C@@H]1O [Compound 407] | > 500
20 | C[C@H]1O[C@@H](n2cnc3c(OCCc4ccc([S+](C)[O-])cc4)ncnc32)[C@H](O)[C@@H]1O (some centres unmarked) [Compound 408] | > 500
21 | C[C@H]1O[C@@H](n2cnc3c(SCc4ccc(C(=O)O)cc4)ncnc32)[C@H](O)[C@@H]1O [Compound 409] | > 500
22 | C[C@H]1O[C@@H](n2cnc3c(SCc4ccc(C(=N)N)cc4)ncnc32)[C@H](O)[C@@H]1O [Compound 410] | > 500
23 | C[C@H]1O[C@@H](n2cnc3c(OCc4ccc([N+](=O)[O-])cc4)nccc32)[C@H](O)[C@@H]1O [Compound 411] | > 500
24 | C[C@H]1O[C@@H](n2cnc3c(NC(=O)c4ccc([N+](=O)[O-])cc4)ncnc32)[C@H](O)[C@@H]1O [Compound 412] | > 500
25 | C[C@H]1O[C@@H](n2cnc3c(=O)n(Cc4ccc([N+](=O)[O-])cc4)ccc32)[C@H](O)[C@@H]1O [Compound 415] | > 500
26 | C[C@H]1O[C@@H](n2cnc3c(-n4cc(-c5ccc([N+](=O)[O-])cc5)nn4)ncnc32)[C@H](O)[C@@H]1O [Compound 416] | > 500

Continued, values first:

Row | IC50 [nM] | SMILES
27 | > 500 | C[C@H]1O[C@@H](n2cnc3c(NCc4cccc(-n5cccn5)c4)ncnc32)[C@H](O)[C@@H]1O [Compound 352]
28 | > 500 | C[C@H]1O[C@@H](n2cnc3c(C(=O)NCc4ccc(Cl)cc4)ncnc32)[C@H](O)[C@@H]1O [Compound 353]
29 | > 500 | C[C@H]1O[C@@H](n2c(N)nc3c(OCc4ccccc4)ncnc32)[C@H](O)[C@@H]1O [Compound 355]
30 | > 500 | C[C@H]1O[C@@H](n2cnc3c(OCCc4cnc(OCF)nc4)ncnc32)[C@H](O)[C@@H]1O [Compound 356]
31 | > 500 | C[C@H]1O[C@@H](n2cnc3c(NCc4ccccc4C#N)ncnc32)[C@H](O)[C@@H]1O [Compound 357]
32 | > 500 | C[C@H]1O[C@@H](n2cnc3c(OCc4ccccc4-n4cccn4)ncnc32)[C@H](O)[C@@H]1O [Compound 358]
33 | > 500 | C[C@H]1O[C@@H](n2cnc3c(SCc4cc(-c5ccco5)on4)ncnc32)[C@H](O)[C@@H]1O [Compound 359]
34 | > 500 | C[C@H]1O[C@@H](n2cnc3c(C(=O)N4CCc5ccc([N+](=O)[O-])cc5C4)ncnc32)[C@H](O)[C@@H]1O [Compound 360]
35 | > 500 | C[C@H]1O[C@@H](n2cnc3c(C(=O)NCc4ccc(C#N)cc4)ncnc32)[C@H](O)[C@@H]1O [Compound 361]
36 | > 500 | C[C@H]1O[C@@H](n2cnc3c(OCc4ncc(F)cc4F)ncnc32)[C@H](O)[C@@H]1O [Compound 362]
37 | > 500 | C[C@H]1O[C@@H](n2cnc3c(OCc4ccc5c(c4)OCCO5)ncnc32)[C@H](O)[C@@H]1O [Compound 363]
38 | > 500 | C[C@H]1O[C@@H](n2cnc3c(OCc4ccc(-c5ccncc5)cc4)ncnc32)[C@H](O)[C@@H]1O [Compound 364]
39 | > 500 | CC(C)Oc1cccc(CSc2ncnc3c2ncn3[C@@H]2O[C@H](C)[C@@H](O)[C@H]2O)c1 [Compound 365]
40 | > 500 | C[C@H]1O[C@@H](n2cnc3c(SCc4ccc(S(=O)(=O)N(C)C)cc4)ncnc32)[C@H](O)[C@@H]1O [Compound 366]
41 | > 500 | Cc1nc(=O)c2cc(COc3ncnc4c3ncn4[C@@H]3O[C@H](C)[C@@H](O)[C@H]3O)ccc2[nH]1 [Compound 367]
42 | > 500 | C[C@H]1O[C@@H](n2cnc3c(-c4cn(-c5ccc([N+](=O)[O-])cc5)nn4)ncnc32)[C@H](O)[C@@H]1O [Compound 368]
43 | > 500 | C[C@H]1O[C@@H](n2cnc3c(C(=O)NCc4ccc(C#N)c(F)c4)ncnc32)[C@H](O)[C@@H]1O [Compound 369]
44 | > 500 | C[C@H]1O[C@@H](n2cnc3c(NCc4ccc(C(=O)N(C)C)cc4)ncnc32)[C@H](O)[C@@H]1O [Compound 370]

Row | IC50 [nM] | SMILES
45 | > 500 | C[C@H]1O[C@@H](n2cnc3c(CO[C@H]4CC[C@H](C(F)(F)F)CC4)ncnc32)[C@H](O)[C@@H]1O [Compound 371]
46 | > 500 | CNc1ccccc1COc1ncnc2c1ncn2[C@@H]1O[C@H](C)[C@@H](O)[C@H]1O [Compound 372]
47 | > 500 | C[C@H]1O[C@@H](n2cnc3c(OCc4cccc(C(N)=O)c4)ncnc32)[C@H](O)[C@@H]1O [Compound 373]
48 | > 500 | C[C@H]1O[C@@H](n2cnc3c(NCc4ccccc4C(N)=O)ncnc32)[C@H](O)[C@@H]1O [Compound 374]
49 | > 500 | C[C@H]1O[C@@H](n2cnc3c(OCc4ccccc4S(C)(=O)=O)ncnc32)[C@H](O)[C@@H]1O [Compound 375]
50 | > 500 | C[C@H]1O[C@@H](n2cnc3c(NCc4ccc5ncccc5c4)ncnc32)[C@H](O)[C@@H]1O [Compound 376]
51 | > 500 | C[C@H]1O[C@@H](n2cnc3c(OCc4ccc(N5CCCC5)cc4)ncnc32)[C@H](O)[C@@H]1O [Compound 377]
52 | > 500 | C[C@H]1O[C@@H](n2cnc3c(NCc4cc(C(F)(F)F)ccc4F)ncnc32)[C@H](O)[C@@H]1O [Compound 378]
53 | > 500 | C[C@H]1O[C@@H](n2cnc3c(NCc4cccc(C(=O)N(C)C)c4)ncnc32)[C@H](O)[C@@H]1O [Compound 379]
54 | > 500 | C[C@H]1O[C@@H](n2cnc3c(NCc4cccc(-c5ncco5)c4)ncnc32)[C@H](O)[C@@H]1O [Compound 380]
55 | > 500 | Cc1nccn1-c1ccc(COc2ncnc3c2ncn3[C@@H]2O[C@H](C)[C@@H](O)[C@H]2O)cc1 [Compound 381]
56 | > 500 | COc1cc(COc2ncnc3c2ncn3[C@@H]2O[C@H](C)[C@@H](O)[C@H]2O)cc(OC)c1OC [Compound 382]
57 | > 500 | C[C@H]1O[C@@H](n2cnc3c(OCc4ccc(-c5ccn(C)n5)cc4)ncnc32)[C@H](O)[C@@H]1O [Compound 383]
58 | > 500 | C[C@H]1O[C@@H](n2cnc3c(NCc4ccc(-c5ccccn5)cc4)ncnc32)[C@H](O)[C@@H]1O [Compound 384]
59 | > 500 | C[C@H]1O[C@@H](n2cnc3c(NCc4ccc(N5CCOCC5)cc4)ncnc32)[C@H](O)[C@@H]1O [Compound 385]
60 | > 500 | CC(C)NC(=O)c1ccc(CNc2ncnc3c2ncn3[C@@H]2O[C@H](C)[C@@H](O)[C@H]2O)cc1 [Compound 386]
61 | > 500 | C[C@H]1O[C@@H](n2cnc3c(NCc4ccc(N5CCCC5=O)cc4)ncnc32)[C@H](O)[C@@H]1O [Compound 387]
62 | > 500 | C[C@H]1O[C@@H](n2cnc3c(NCc4ccc(OCCN(C)C)cc4)ncnc32)[C@H](O)[C@@H]1O [Compound 388]
